Experiments:
Dipeptidyl peptidase 2 = Dipeptidyl peptidase 2 (Homo sapiens, UniProt Q9UHL4); assay: Inhibition of DPP7
Dipeptidyl peptidase 9 = Dipeptidyl peptidase 9 (Homo sapiens, UniProt Q86TI2)
Prolyl endopeptidase = biological target: T1, Prolyl endopeptidase (Homo sapiens, UniProt P48147); assay: Inhibition of POP
T1 sequence (P48147 whole entry): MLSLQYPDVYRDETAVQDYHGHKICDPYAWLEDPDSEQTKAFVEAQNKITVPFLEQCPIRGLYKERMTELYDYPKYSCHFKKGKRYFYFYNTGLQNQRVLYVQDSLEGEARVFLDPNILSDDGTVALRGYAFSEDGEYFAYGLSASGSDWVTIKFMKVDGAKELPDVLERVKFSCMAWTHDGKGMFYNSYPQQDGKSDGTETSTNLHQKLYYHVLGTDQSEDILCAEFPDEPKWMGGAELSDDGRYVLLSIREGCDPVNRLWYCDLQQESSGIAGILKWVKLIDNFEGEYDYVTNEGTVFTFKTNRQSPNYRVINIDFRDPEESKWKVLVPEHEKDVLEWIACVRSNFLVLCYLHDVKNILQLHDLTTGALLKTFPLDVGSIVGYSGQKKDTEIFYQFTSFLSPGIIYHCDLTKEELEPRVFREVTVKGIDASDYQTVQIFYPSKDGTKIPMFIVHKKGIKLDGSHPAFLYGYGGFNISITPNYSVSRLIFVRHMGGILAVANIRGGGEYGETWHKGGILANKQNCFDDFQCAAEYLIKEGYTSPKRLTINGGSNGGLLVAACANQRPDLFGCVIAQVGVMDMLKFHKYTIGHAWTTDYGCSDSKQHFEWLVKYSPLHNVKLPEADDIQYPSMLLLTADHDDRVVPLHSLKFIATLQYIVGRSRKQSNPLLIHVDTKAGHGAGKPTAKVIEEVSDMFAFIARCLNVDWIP

Dipeptidyl peptidase 8 = Dipeptidyl peptidase 8 (Homo sapiens, UniProt Q6V1X1)
Prolyl endopeptidase FAP = biological target: T2, Prolyl endopeptidase FAP (Homo sapiens, UniProt Q12884); assay: Inhibition of FAPalpha
T2 sequence (Q12884 whole entry): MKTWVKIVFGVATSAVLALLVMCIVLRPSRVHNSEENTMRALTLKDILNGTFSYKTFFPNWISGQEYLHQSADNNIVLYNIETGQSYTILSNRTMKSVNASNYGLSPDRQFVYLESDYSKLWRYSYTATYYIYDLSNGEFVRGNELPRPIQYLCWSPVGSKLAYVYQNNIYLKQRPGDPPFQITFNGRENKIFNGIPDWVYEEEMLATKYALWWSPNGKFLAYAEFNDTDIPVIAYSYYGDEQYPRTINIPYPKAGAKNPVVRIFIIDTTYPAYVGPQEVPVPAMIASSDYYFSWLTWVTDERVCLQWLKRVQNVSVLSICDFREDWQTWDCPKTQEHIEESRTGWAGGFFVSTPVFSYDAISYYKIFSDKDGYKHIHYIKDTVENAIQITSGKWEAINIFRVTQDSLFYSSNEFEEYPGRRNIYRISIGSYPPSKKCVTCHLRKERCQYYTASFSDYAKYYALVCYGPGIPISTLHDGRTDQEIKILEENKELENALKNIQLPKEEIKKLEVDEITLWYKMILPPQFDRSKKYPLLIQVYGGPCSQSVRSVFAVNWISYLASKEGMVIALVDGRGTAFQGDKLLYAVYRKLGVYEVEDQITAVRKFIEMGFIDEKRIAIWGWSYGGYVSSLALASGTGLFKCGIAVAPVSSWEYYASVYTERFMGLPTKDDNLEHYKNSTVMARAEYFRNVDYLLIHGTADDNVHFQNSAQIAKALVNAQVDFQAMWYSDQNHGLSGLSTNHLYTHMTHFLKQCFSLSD

Chain of Dipeptidyl peptidase 9 (Q86TI2 whole entry): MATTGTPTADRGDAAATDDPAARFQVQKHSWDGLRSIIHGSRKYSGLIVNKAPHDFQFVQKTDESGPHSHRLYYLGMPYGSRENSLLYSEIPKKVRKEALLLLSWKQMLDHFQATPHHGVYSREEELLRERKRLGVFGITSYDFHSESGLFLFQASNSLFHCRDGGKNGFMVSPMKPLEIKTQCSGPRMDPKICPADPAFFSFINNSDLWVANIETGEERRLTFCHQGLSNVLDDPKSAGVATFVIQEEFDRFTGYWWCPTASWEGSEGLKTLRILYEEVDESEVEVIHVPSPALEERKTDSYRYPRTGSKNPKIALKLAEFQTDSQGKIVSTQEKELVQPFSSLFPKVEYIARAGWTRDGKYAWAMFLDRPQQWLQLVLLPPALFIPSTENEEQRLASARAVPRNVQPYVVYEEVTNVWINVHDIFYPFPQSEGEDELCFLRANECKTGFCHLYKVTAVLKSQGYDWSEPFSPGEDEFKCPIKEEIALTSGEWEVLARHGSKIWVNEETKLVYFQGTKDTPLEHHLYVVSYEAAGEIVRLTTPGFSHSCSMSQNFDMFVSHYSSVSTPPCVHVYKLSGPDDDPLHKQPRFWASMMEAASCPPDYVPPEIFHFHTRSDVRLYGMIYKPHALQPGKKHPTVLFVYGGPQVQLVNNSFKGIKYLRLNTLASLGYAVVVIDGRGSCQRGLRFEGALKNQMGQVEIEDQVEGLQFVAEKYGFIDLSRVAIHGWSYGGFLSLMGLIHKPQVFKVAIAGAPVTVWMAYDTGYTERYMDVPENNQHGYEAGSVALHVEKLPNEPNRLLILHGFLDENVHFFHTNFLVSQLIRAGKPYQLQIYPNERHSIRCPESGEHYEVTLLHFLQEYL
Chain of Dipeptidyl peptidase 8 (Q6V1X1 whole entry): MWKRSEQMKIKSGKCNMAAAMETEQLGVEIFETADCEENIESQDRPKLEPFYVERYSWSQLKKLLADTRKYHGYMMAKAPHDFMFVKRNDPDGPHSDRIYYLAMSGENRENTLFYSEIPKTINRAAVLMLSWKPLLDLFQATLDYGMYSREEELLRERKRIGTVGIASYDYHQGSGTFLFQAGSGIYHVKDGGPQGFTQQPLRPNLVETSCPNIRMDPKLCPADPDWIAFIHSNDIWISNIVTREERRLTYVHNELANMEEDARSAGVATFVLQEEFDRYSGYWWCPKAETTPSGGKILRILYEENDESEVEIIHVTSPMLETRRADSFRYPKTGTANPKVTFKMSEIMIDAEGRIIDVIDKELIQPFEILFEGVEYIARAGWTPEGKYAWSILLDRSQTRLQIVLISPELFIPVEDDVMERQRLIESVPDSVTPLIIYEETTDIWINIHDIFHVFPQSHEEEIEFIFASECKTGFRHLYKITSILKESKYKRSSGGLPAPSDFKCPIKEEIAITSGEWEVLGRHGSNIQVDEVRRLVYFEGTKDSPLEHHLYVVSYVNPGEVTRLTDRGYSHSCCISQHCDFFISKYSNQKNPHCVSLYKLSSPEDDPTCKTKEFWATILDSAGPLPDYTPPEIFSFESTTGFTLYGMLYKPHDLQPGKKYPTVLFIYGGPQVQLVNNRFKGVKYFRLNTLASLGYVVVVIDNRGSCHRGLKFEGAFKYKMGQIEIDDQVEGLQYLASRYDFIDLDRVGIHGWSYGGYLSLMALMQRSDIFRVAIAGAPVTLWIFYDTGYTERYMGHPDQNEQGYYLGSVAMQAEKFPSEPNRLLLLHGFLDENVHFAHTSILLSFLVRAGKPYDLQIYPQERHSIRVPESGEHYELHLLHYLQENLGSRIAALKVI

Ki (Dipeptidyl peptidase 2): > 30 µM | Ki (Dipeptidyl peptidase 9): > 30 µM | Ki (Prolyl endopeptidase): > 30 µM | Ki (Dipeptidyl peptidase 8): > 30 µM | Ki (Prolyl endopeptidase FAP): > 30 µM
Structure (SMILES): C#C[C@H]1CC[C@@H](C#N)N1C(=O)CNC1(C)CCN(c2ccc(C#N)cn2)CC1
